Results reported in ChEMBL document CHEMBL5370592, “Synthesis and Structure-Activity Relationships of a New Class of Oxadiazoles Targeting DprE1 as Antitubercular Agents” (ACS Med Chem Lett, 2023).
Converted amounts (≈) assume the structure as drawn.

Assays:
Type in all cases: functional
[1] = tested on: Mycobacterium tuberculosis; test: Antitubercular activity against isoniazid/prothionamide-resistant Mycobacterium tuberculosis NIHB140 assessed as inhibition of bacterial growth incubated for 2 weeks; conditions: NIHB140, 336 h
[2] = tested on: Mycobacterium tuberculosis; test: Antitubercular activity against isonizaid/rifampicin/streptomycin/ethionamide-resistant Mycobacterium tuberculosis NIH_G79 assessed as inhibition of bacterial growth incubated for 2 weeks; conditions: NIH_G79, 336 h
[3] = tested on: Mycobacterium tuberculosis; test: Antitubercular activity against ethambutol/D-cycloserine-resistant Mycobacterium tuberculosis NIH_G11R assessed as inhibition of bacterial growth incubated for 2 weeks; conditions: 336 h
[4] = tested on: Mycobacterium tuberculosis; test: Antitubercular activity against isoniazid/rifampicin/ethambutol/streptomycin/D-cycloserine/rifabutin-resistant Mycobacterium tuberculosis NIH_G19R assessed as inhibition of bacterial growth incubated for 2 weeks; conditions: 336 h
[5] = tested on: Mycobacterium tuberculosis; test: Antitubercular activity against isonizaid/rifampicin/ethambutol/rifabutin-resistant Mycobacterium tuberculosis NIH_G269DR assessed as inhibition of bacterial growth incubated for 2 weeks; conditions: 336 h
[6] = tested on: Mycobacterium tuberculosis; test: Antitubercular activity against isoniazid/rifampicin/ethambutol/rifabutin-resistant Mycobacterium tuberculosis K22b00MR assessed as inhibition of bacterial growth incubated for 2 weeks; conditions: 336 h
[7] = tested on: Mycobacterium tuberculosis; test: Antitubercular activity against isonizaid/rifampicin/ethionamide/prothionamide-resistant Mycobacterium tuberculosis NIHA48 assessed as inhibition of bacterial growth incubated for 2 weeks; conditions: NIHA48, 336 h
[8] = tested on: Mycobacterium tuberculosis; test: Antitubercular activity against isoniazid/rifampicin/moxifloxacin-resistant Mycobacterium tuberculosis NIH_G76MR assessed as inhibition of bacterial growth incubated for 2 weeks; conditions: 336 h
[9] = tested on: Mycobacterium tuberculosis; test: Antitubercular activity against isoniazid/rifampicin/ethambutol/pyrazinamide/prothionamide/ofloxacin/levofloxacin/rifabutin-resistant Mycobacterium tuberculosis NIHB270 assessed as inhibition of bacterial growth incubated for 2 weeks; conditions: NIHB270, 336 h
[10] = tested on: Mycobacterium tuberculosis; test: Antitubercular activity against isoniazid/rifampicin/kanamycin/pyrazinamide/capreomycin/amikacin/prothionamide/D-cycloserine-resistant Mycobacterium tuberculosis K32b00MR assessed as inhibition of bacterial growth incubated for 2 weeks; conditions: 336 h
[11] = tested on: Mycobacterium tuberculosis; test: Antitubercular activity against extensively drug-resistant Mycobacterium tuberculosis NIH1B178 assessed as inhibition of bacterial growth incubated for 2 weeks; conditions: NIH1B178, 336 h
[12] = tested on: Mycobacterium tuberculosis; test: Antitubercular activity against isoniazid/ofloxacin/prothionamide-resistant Mycobacterium tuberculosis NIH1B127 assessed as inhibition of bacterial growth incubated for 2 weeks; conditions: NIH1B127, 336 h
[13] = tested on: Mycobacterium tuberculosis; test: Antitubercular activity against extensively drug-resistant Mycobacterium tuberculosis NIH1B250 assessed as inhibition of bacterial growth incubated for 2 weeks; conditions: NIH1B250, 336 h
[14] = tested on: Mycobacterium tuberculosis; test: Antitubercular activity against isoniazid/rifampicin/ethambutol/pyrazinamid/rifabutin-resistant Mycobacterium tuberculosis K26b00MR assessed as inhibition of bacterial growth incubated for 2 weeks; conditions: 336 h
[15] = tested on: Mycobacterium tuberculosis; test: Antitubercular activity against isoniazid/rifampicin/ethambutol/para-aminosalicylic acid/kanamycin/ofloxacin/prothionamide-resistant Mycobacterium tuberculosis Kb019 assessed as inhibition of bacterial growth incubated for 2 weeks; conditions: Kb019, 336 h
[16] = tested on: Mycobacterium tuberculosis; test: Antitubercular activity against extensively drug-resistant Mycobacterium tuberculosis clinical strain 00202293 assessed as inhibition of bacterial growth incubated for 2 weeks; conditions: Mycobacterium tuberculosis, 00202293, 336 h
[17] = tested on: Mycobacterium tuberculosis; test: Antitubercular activity against ethionamide-resistant Mycobacterium tuberculosis NIH_G145 assessed as inhibition of bacterial growth incubated for 2 weeks; conditions: NIH_G145, 336 h
[18] = tested on: Mycobacterium tuberculosis; test: Antitubercular activity against isoniazid/rifampicin/para-aminosalicylic acid/ofloxacin/prothionamide-resistant Mycobacterium tuberculosis NIHB67 assessed as inhibition of bacterial growth incubated for 2 weeks; conditions: NIHB67, 336 h
[19] = tested on: Mycobacterium tuberculosis; test: Antitubercular activity against isoniazid/rifampicin/para-aminosalicylic acid/pyrazinamide/prothionamide/rifabutin-resistant Mycobacterium tuberculosis NIHB68 assessed as inhibition of bacterial growth incubated for 2 weeks; conditions: NIHB68, 336 h
[20] = tested on: Mycobacterium tuberculosis; test: Antitubercular activity against isonizaid/rifampicin/ethambutol/rifabutin-resistant Mycobacterium tuberculosis NIH_G22R assessed as inhibition of bacterial growth incubated for 2 weeks; conditions: 336 h
[21] = tested on: Mycobacterium tuberculosis; test: Antitubercular activity against isoniazid/rifampicin/pyrazinamide/prothionamide/rifabutin/ofloxacin/moxifloxacin/levofloxacin-resistant Mycobacterium tuberculosis NIHB188 assessed as inhibition of bacterial growth incubated for 2 weeks; conditions: NIHB188, 336 h
[22] = tested on: Mycobacterium tuberculosis; test: Antitubercular activity against isoniazid/rifampicin/ethambutol/pyrazinamide/streptomycin/kanamycin-resistant Mycobacterium tuberculosis K20b00MR assessed as inhibition of bacterial growth incubated for 2 weeks; conditions: 336 h
[23] = tested on: Mycobacterium tuberculosis; test: Antitubercular activity against isoniazid/ethionamide/D-cycloserine-resistant Mycobacterium tuberculosis NIH_G17R assessed as inhibition of bacterial growth incubated for 2 weeks; conditions: 336 h
[24] = tested on: Mycobacterium tuberculosis; test: Antitubercular activity against rifampicin/isoniazid/streptomycin/prothionamide-resistant Mycobacterium tuberculosis NIHB43 assessed as inhibition of bacterial growth incubated for 2 weeks; conditions: NIHB43, 336 h
[25] = tested on: Mycobacterium tuberculosis; test: Antitubercular activity against isonizaid/rifampicin/rifabutin-resistant Mycobacterium tuberculosis NIHA37 assessed as inhibition of bacterial growth incubated for 2 weeks; conditions: NIHA37, 336 h
[26] = tested on: Mycobacterium tuberculosis; test: Antitubercular activity against isoniazid/rifampicin/ethambutol/pyrazinamid/rifabutin/prothionamide-resistant Mycobacterium tuberculosis K25b00MR assessed as inhibition of bacterial growth incubated for 2 weeks; conditions: 336 h
[27] = tested on: Mycobacterium tuberculosis; test: Antitubercular activity against isoniazid/prothionamide-resistant Mycobacterium tuberculosis NIHA38 assessed as inhibition of bacterial growth incubated for 2 weeks; conditions: NIHA38, 336 h
[28] = tested on: Mycobacterium tuberculosis; test: Antitubercular activity against isoniazid/ethambutol/prothionamide/D-cycloserine/ofloxacin/levofloxacin/pyrazinamide-resistant Mycobacterium tuberculosis NIH1B314 assessed as inhibition of bacterial growth incubated for 2 weeks; conditions: NIH1B314, 336 h
[29] = tested on: Mycobacterium tuberculosis; test: Antitubercular activity against isoniazid/rifampicin/ethambutol/pyrazinamide/streptomycin/kanamycin/para-aminosalicylic acid/prothionamide-resistant Mycobacterium tuberculosis K33b00MR assessed as inhibition of bacterial growth incubated for 2 weeks; conditions: 336 h
[30] = tested on: Mycobacterium tuberculosis; test: Antitubercular activity against isoniazid/rifampicin/streptomycin-resistant Mycobacterium tuberculosis clinical strain 01291696 assessed as inhibition of bacterial growth incubated for 2 weeks; conditions: Mycobacterium tuberculosis, 01291696, 336 h
[31] = tested on: Mycobacterium tuberculosis; test: Antitubercular activity against isoniazid/rifampicin/ethambutol/rifabutin-resistant Mycobacterium tuberculosis K18b01MR assessed as inhibition of bacterial growth incubated for 2 weeks; conditions: 336 h
[32] = tested on: Mycobacterium tuberculosis; test: Antitubercular activity against isoniazid/rifampicin/ethambutol/pyrazinamide/rifabutin/prothionamide-resistant Mycobacterium tuberculosis NIHB302 assessed as inhibition of bacterial growth incubated for 2 weeks; conditions: NIHB302, 336 h
[33] = tested on: Mycobacterium tuberculosis; test: Antitubercular activity against extensively drug-resistant Mycobacterium tuberculosis 028K111 assessed as inhibition of bacterial growth incubated for 2 weeks; conditions: 028K111, 336 h
[34] = tested on: Mycobacterium tuberculosis; test: Antitubercular activity against isonizaid/rifampicin/ethambutol/rifabutin/D-cycloserine-resistant Mycobacterium tuberculosis NIH_G21R assessed as inhibition of bacterial growth incubated for 2 weeks; conditions: 336 h
[35] = tested on: Mycobacterium tuberculosis; test: Antitubercular activity against isoniazid/rifampicin/moxifloxacin-resistant Mycobacterium tuberculosis NIH_G367DR assessed as inhibition of bacterial growth incubated for 2 weeks; conditions: 336 h
[36] = tested on: Mycobacterium tuberculosis; test: Antitubercular activity against isoniazid/rifampicin/streptomycin/para-aminosalicylic acid/ofloxacin-resistant Mycobacterium tuberculosis K29b00MR assessed as inhibition of bacterial growth incubated for 2 weeks; conditions: 336 h
[37] = tested on: Mycobacterium tuberculosis; test: Antitubercular activity against extensively drug-resistant Mycobacterium tuberculosis clinical strain X37b00XR assessed as inhibition of bacterial growth incubated for 2 weeks; conditions: 336 h
[38] = tested on: Mycobacterium tuberculosis; test: Antitubercular activity against extensively drug-resistant Mycobacterium tuberculosis NIHB13 assessed as inhibition of bacterial growth incubated for 2 weeks; conditions: NIHB13, 336 h
[39] = tested on: Mycobacterium tuberculosis; test: Antitubercular activity against isoniazid/ethionamide-resistant Mycobacterium tuberculosis NIH1B21 assessed as inhibition of bacterial growth incubated for 2 weeks; conditions: NIH1B21, 336 h
[40] = tested on: Mycobacterium tuberculosis; test: Antitubercular activity against isoniazid/rifampicin/ethambutol/streptomycin-resistant Mycobacterium tuberculosis K21b00MR assessed as inhibition of bacterial growth incubated for 2 weeks; conditions: 336 h
[41] = tested on: Mycobacterium tuberculosis; test: Antitubercular activity against streptomycin/D-cycloserine-resistant Mycobacterium tuberculosis NIH_G169 assessed as inhibition of bacterial growth incubated for 2 weeks; conditions: NIH_G169, 336 h
[42] = tested on: Mycobacterium tuberculosis; test: Antitubercular activity against isoniazid/rifampicin/ethambutol/rifabutin-resistant Mycobacterium tuberculosis NIH_G10R assessed as inhibition of bacterial growth incubated for 2 weeks; conditions: 336 h
[43] = tested on: Mycobacterium tuberculosis; test: Antitubercular activity against extensively drug-resistant Mycobacterium tuberculosis 026K111 assessed as inhibition of bacterial growth incubated for 2 weeks; conditions: 026K111, 336 h

Work on `COc1nc2ccc(Br)cc2cc1[C@@H](c1ccccc1)[C@@](O)(CCN(C)C)c1cccc2ccccc12` [BEDAQUILINE] yielded an MIC [1] of 0.05 µM (≈ 0.0278 µg/mL), an MIC [2] of 0.07 µM (≈ 0.0389 µg/mL) and an MIC [3] of 0.15 µM (≈ 0.0833 µg/mL). The MIC [4] was 0.1 µM (≈ 0.0556 µg/mL), the MIC [5] was 0.1 µM (≈ 0.0556 µg/mL) and the MIC [6] was 0.15 µM (≈ 0.0833 µg/mL). It also gave an MIC [7] of 0.1 µM (≈ 0.0556 µg/mL), an MIC [8] of under 0.02 µM and an MIC [9] of 0.07 µM (≈ 0.0389 µg/mL). The MIC [10] was 0.1 µM (≈ 0.0556 µg/mL), the MIC [11] was 0.05 µM (≈ 0.0278 µg/mL) and the MIC [12] was 0.1 µM (≈ 0.0556 µg/mL). The MIC [13] was 0.07 µM (≈ 0.0389 µg/mL), the MIC [14] was 0.1 µM (≈ 0.0556 µg/mL) and the MIC [15] was 0.07 µM (≈ 0.0389 µg/mL). It also gave an MIC [16] of 0.02 µM (≈ 0.0111 µg/mL), an MIC [17] of 0.2 µM (≈ 0.111 µg/mL) and an MIC [18] of 0.3 µM (≈ 0.167 µg/mL). It also gave an MIC [19] of 0.1 µM (≈ 0.0556 µg/mL), an MIC [20] of 0.1 µM (≈ 0.0556 µg/mL) and an MIC [21] of 0.04 µM (≈ 0.0222 µg/mL). The MIC [22] was under 0.02 µM, the MIC [23] was 0.1 µM (≈ 0.0556 µg/mL) and the MIC [24] was 0.05 µM (≈ 0.0278 µg/mL). The MIC [25] was 0.05 µM (≈ 0.0278 µg/mL), the MIC [26] was 0.1 µM (≈ 0.0556 µg/mL) and the MIC [27] was 0.05 µM (≈ 0.0278 µg/mL). The MIC [28] was under 0.02 µM, the MIC [29] was 0.07 µM (≈ 0.0389 µg/mL) and the MIC [30] was 0.05 µM (≈ 0.0278 µg/mL). For the same compound, the MIC [31] was 0.04 µM (≈ 0.0222 µg/mL), the MIC [32] was 0.04 µM (≈ 0.0222 µg/mL) and the MIC [33] was 0.15 µM (≈ 0.0833 µg/mL). It also gave an MIC [34] of 0.02 µM (≈ 0.0111 µg/mL), an MIC [35] of under 0.02 µM and an MIC [36] of 0.2 µM (≈ 0.111 µg/mL). For the same compound, the MIC [37] was 0.1 µM (≈ 0.0556 µg/mL), the MIC [38] was 0.05 µM (≈ 0.0278 µg/mL) and the MIC [39] was 0.07 µM (≈ 0.0389 µg/mL). The MIC [40] was 0.07 µM (≈ 0.0389 µg/mL), the MIC [41] was 0.15 µM (≈ 0.0833 µg/mL) and the MIC [42] was 0.1 µM (≈ 0.0556 µg/mL). The MIC [43] was 0.2 µM (≈ 0.111 µg/mL).
